# Tested on: Ramos cells
# Test: Cytotoxicity in Ramos cells
# Type: cell-based
# Settings: Homo sapiens, read-out: Ramos Cell EC50
# Experimental: Exemplary compounds described in above Examples were tested for activity against F1F0-ATPase by measuring the ability of the compounds to inhibit ATP synthesis. In addition, the compounds were assessed for cytotoxicity in Ramos cells. Inhibition of F1F0-ATPase activity in synthesizing ATP and cytotoxicity in Ramos cells were measured according to the procedures described in K. M. Johnson et al. Chemistry & Biology 2005, 12, 485-496.
row,SMILES,EC50 [µM]
1,"O=C(/N=C(/Nc1cc(F)cc(Cl)c1)Nc1cc(C(F)(F)F)nn1CC(O)CO)c1cccc(Cl)c1 (single isomer, unassigned) [Compound A-10]",< 10
2,O=C(/N=C(/Nc1cc(F)cc(Cl)c1)Nc1cc(C(F)(F)F)nn1CCO)c1ccc(C(F)(F)F)cc1 [Compound A-1],< 10
3,N#CCCn1nc(C(F)(F)F)cc1N/C(=N\C(=O)c1ccc(C(F)(F)F)cc1)Nc1cc(F)cc(Cl)c1 [Compound A-2],< 10
4,CC(O)Cn1nc(C(F)(F)F)cc1N/C(=N\C(=O)c1ccc(C(F)(F)F)cc1)Nc1cc(F)cc(Cl)c1 (stereo not shown) [Compound A-3],< 10
5,CCOC(=O)Cn1nc(C(F)(F)F)cc1N/C(=N\C(=O)c1ccc(C(F)(F)F)cc1)Nc1cc(F)cc(Cl)c1 [Compound A-4],< 10
6,O=C(O)Cn1nc(C(F)(F)F)cc1N/C(=N\C(=O)c1ccc(C(F)(F)F)cc1)Nc1cc(F)cc(Cl)c1 [Compound A-5],< 10
7,NC(=O)Cn1nc(C(F)(F)F)cc1N/C(=N\C(=O)c1ccc(C(F)(F)F)cc1)Nc1cc(F)cc(Cl)c1 [Compound A-6],< 10
8,Cc1c(C(F)(F)F)nn(CCO)c1N/C(=N\C(=O)c1ccc(C(F)(F)F)cc1)Nc1cc(F)cc(Cl)c1 [Compound A-7],< 10
9,COc1ccc(C(=O)/N=C(/Nc2cccc(Cl)c2)Nc2cc(C(F)(F)F)nn2CCO)cc1 [Compound A-8],< 10
10,COc1ccc(C(=O)/N=C(/Nc2cccc(C(F)(F)F)c2)Nc2cc(C(F)(F)F)nn2CCO)cc1 [Compound A-9],< 10
11,C=CCn1nc(C(F)(F)F)cc1N/C(=N\C(=O)c1cccc(Cl)c1)Nc1cc(F)cc(Cl)c1 [Compound A-12],< 10
12,O=C(/N=C(/Nc1cc(F)cc(Cl)c1)Nc1cc(C(F)(F)F)nn1-c1ccccc1)c1ccc(Cl)cc1 [Compound A-13],< 10
13,O=C(/N=C(/Nc1cccc(Cl)c1)Nc1cc(C(F)(F)F)nn1-c1ccccc1)c1ccc(Cl)cc1 [Compound A-14],< 10
14,O=C(/N=C(/Nc1cccc(C(F)(F)F)c1)Nc1cc(C(F)(F)F)nn1-c1ccccc1)c1ccc(Cl)cc1 [Compound A-15],< 10
15,O=C(/N=C(/Nc1cc(F)cc(Cl)c1)Nc1cc(C(F)(F)F)nn1-c1ccc(F)cc1)c1ccc(Cl)cc1 [Compound A-16],< 10
16,O=C(/N=C(/Nc1cccc(Cl)c1)Nc1cc(C(F)(F)F)nn1-c1ccc(F)cc1)c1ccc(Cl)cc1 [Compound A-17],< 10
17,O=C(/N=C(/Nc1cccc(C(F)(F)F)c1)Nc1cc(C(F)(F)F)nn1-c1ccc(F)cc1)c1ccc(Cl)cc1 [Compound A-18],< 10
18,O=C(/N=C(/Nc1cc(F)cc(Cl)c1)Nc1cc(C(F)(F)F)nn1-c1ccc(F)cc1)c1cccc(Cl)c1 [Compound A-19],< 10
19,O=C(/N=C(/Nc1cc(F)cc(Cl)c1)Nc1cc(C(F)(F)F)nn1-c1cccc(Cl)c1)c1cccc(Cl)c1 [Compound A-20],< 10

row,SMILES,EC50 [µM]
1,O=C(/N=C(/Nc1cc(F)cc(Cl)c1)Nc1cc(C(F)(F)F)nn1-c1cccc(Cl)c1)c1ccc(C(F)(F)F)cc1 [Compound A-21],< 10
2,O=C(/N=C(/Nc1cccc(Cl)c1F)Nc1cc(C(F)(F)F)nn1-c1cccc(Cl)c1)c1ccc(F)c(F)c1 [Compound A-22],< 10
3,Cc1c(C(F)(F)F)nn(-c2ccc(F)cc2)c1N/C(=N\C(=O)c1cccc(Cl)c1)Nc1cc(F)cc(Cl)c1 [Compound A-23],< 10
4,Cc1c(C(F)(F)F)nn(-c2ccc(F)cc2)c1N/C(=N\C(=O)c1ccc(C(F)(F)F)cc1)Nc1cc(F)cc(Cl)c1 [Compound A-24],< 10
5,Cc1c(C(F)(F)F)nn(-c2ccc(F)cc2)c1N/C(=N\C(=O)c1ccc(F)c(F)c1)Nc1cccc(Cl)c1F [Compound A-25],< 10
6,O=C(/N=C(/Nc1cc(F)cc(Cl)c1)Nc1cc(C(F)(F)F)nn1C1CCCC1)c1cccc(Cl)c1 [Compound A-26],< 10
7,O=C(/N=C(/Nc1cc(F)cc(Cl)c1)Nc1cc(C(F)(F)F)nn1C1CCCCC1)c1cccc(Cl)c1 [Compound A-27],< 10
8,O=C(/N=C(/Nc1cc(F)cc(Cl)c1)Nc1cc(C(F)(F)F)nn1C1CCCCC1)c1ccc(F)c(F)c1 [Compound A-28],< 10
9,O=C(/N=C(/Nc1cc(F)cc(Cl)c1)Nc1ccnn1-c1ccccc1)c1cccc(Cl)c1 [Compound A-29],< 10
10,O=C(/N=C(/Nc1cc(F)cc(Cl)c1)Nc1ccnn1-c1ccccc1)c1ccc(F)c(F)c1 [Compound A-30],< 10
11,COc1cc(OC)cc(-n2nc(C(F)(F)F)cc2N/C(=N\C(=O)c2ccc(F)c(F)c2)Nc2cc(F)cc(Cl)c2)c1 [Compound A-31],< 10
12,O=C(/N=C(/Nc1cc(F)cc(Cl)c1)Nc1cc(C(F)(F)F)nn1-c1cccnc1)c1cccc(Cl)c1 [Compound A-32],< 10
13,O=C(/N=C(/Nc1cc(F)cc(Cl)c1)Nc1cc(C(F)(F)F)nn1C1CCCC1)c1ccc(F)c(F)c1 [Compound A-33],< 10
14,COc1cc(O)cc(-n2nc(C(F)(F)F)cc2N/C(=N\C(=O)c2ccc(F)c(F)c2)Nc2cc(F)cc(Cl)c2)c1 [Compound A-34],< 10
15,O=C(/N=C(/Nc1cc(F)cc(Cl)c1)Nc1cc(C(F)(F)F)nn1-c1cc(O)cc(O)c1)c1ccc(F)c(F)c1 [Compound A-35],< 10
16,O=C(/N=C(/Nc1cc(F)cc(Cl)c1)Nc1cc(C(F)(F)F)nn1C1CCOCC1)c1cccc(Cl)c1 [Compound A-36],< 10
17,CS(=O)(=O)N1CCC(n2nc(C(F)(F)F)cc2N/C(=N\C(=O)c2cccc(Cl)c2)Nc2cc(F)cc(Cl)c2)CC1 [Compound A-37],< 10
18,COC(=O)N1CCC(n2nc(C(F)(F)F)cc2N/C(=N\C(=O)c2cccc(Cl)c2)Nc2cc(F)cc(Cl)c2)CC1 [Compound A-38],< 10
19,O=C(/N=C(/Nc1cc(F)cc(Cl)c1)Nc1cc(C(F)(F)F)nn1C1CCCC1)c1cc(F)c(Cl)cc1Cl [Compound A-39],< 10

row,SMILES,EC50 [µM]
1,O=C(/N=C(/Nc1cc(F)cc(Cl)c1)Nc1cc(C(F)(F)F)nn1C1CCCC1)c1cc(F)c(Cl)cc1F [Compound A-40],< 10
2,Cc1cc(Cl)ccc1C(=O)/N=C(/Nc1cc(F)cc(Cl)c1)Nc1cc(C(F)(F)F)nn1C1CCCC1 [Compound A-41],< 10
3,O=C(/N=C(/Nc1cc(F)cc(Cl)c1)Nc1cc(C(F)(F)F)nn1C1CCCC1)c1ccc(Cl)cc1F [Compound A-42],< 10
4,Cc1c(Cl)cccc1C(=O)/N=C(/Nc1cc(F)cc(Cl)c1)Nc1cc(C(F)(F)F)nn1C1CCCC1 [Compound A-43],< 10
5,O=C(/N=C(/Nc1cc(F)cc(Cl)c1)Nc1cc(C(F)(F)F)nn1C1CCCC1)c1cccc(Cl)c1F [Compound A-44],< 10
6,O=C(/N=C(/Nc1cc(F)cc(Cl)c1)Nc1cc(C(F)(F)F)nn1C1CCCC1)c1ccc(Cl)c(F)c1 [Compound A-45],< 10
7,O=C(/N=C(/Nc1cc(F)cc(Cl)c1)Nc1cc(C(F)(F)F)nn1C1CCCC1)c1ccc(Cl)cc1Cl [Compound A-46],< 10
8,Cc1cc(F)ccc1C(=O)/N=C(/Nc1cc(F)cc(Cl)c1)Nc1cc(C(F)(F)F)nn1C1CCCC1 [Compound A-47],< 10
9,O=C(/N=C(/Nc1cc(F)cc(Cl)c1)Nc1cc(C(F)(F)F)nn1C1CCCC1)c1c(F)cccc1F [Compound A-48],< 10
10,COc1cccc(C(=O)/N=C(/Nc2cc(F)cc(Cl)c2)Nc2cc(C(F)(F)F)nn2C2CCCC2)c1 [Compound A-49],< 10
11,O=C(/N=C(/Nc1cc(F)cc(Cl)c1)Nc1cc(C(F)(F)F)nn1C1CCCC1)c1cccc(F)c1 [Compound A-50],< 10
12,N#Cc1ccc(C(=O)/N=C(/Nc2cc(F)cc(Cl)c2)Nc2cc(C(F)(F)F)nn2C2CCCC2)cc1 [Compound A-51],< 10
13,N#Cc1ccc(C(=O)/N=C(/Nc2cccc(Cl)c2)Nc2cc(C(F)(F)F)nn2C2CCCC2)cc1 [Compound A-52],< 10
14,O=C(/N=C(/Nc1cccc(Cl)c1)Nc1cc(C(F)(F)F)nn1C1CCCC1)c1ccc(Cl)cc1 [Compound A-53],< 10
15,N#Cc1cccc(C(=O)/N=C(/Nc2cc(F)cc(Cl)c2)Nc2cc(C(F)(F)F)nn2C2CCCC2)c1 [Compound A-54],< 10
16,N#Cc1cccc(C(=O)/N=C(/Nc2cccc(Cl)c2)Nc2cc(C(F)(F)F)nn2C2CCCC2)c1 [Compound A-55],< 10
17,O=C(/N=C(/Nc1cc(F)cc(Cl)c1)Nc1cc(C(F)(F)F)nn1C1CCCC1)c1ccccc1Cl [Compound A-56],< 10
18,O=C(/N=C(/Nc1cccc(Cl)c1)Nc1cc(C(F)(F)F)nn1C1CCCC1)c1ccccc1Cl [Compound A-57],< 10
19,"O=C(N=C(Nc1cc(F)cc(Cl)c1)Nc1cc(C(F)(F)F)nn1C1CCCC1)c1ccc(Cl)cc1 [Compound A-58, 4-chloro-N-(((3-chloro-5-fluorophenyl)amino)((1-cyclopentyl-3-(trifluoromethyl)-1H-pyrazol-5-yl)amino)methylene)benzamide]",< 10

# Same assay, conditions: read-out: Ramos Cell EC50
row,SMILES,EC50 [µM]
1,"O=C(/N=C(/Nc1cc(F)cc(Cl)c1)Nc1cc(C(F)(F)F)nn1CC(O)CO)c1cccc(Cl)c1 (single isomer, unassigned) [Compound A-11]",< 10

# From patent US9914706B2, “N-substituted pyrazolyl guanidine F1F0-ATPase inhibitors and therapeutic uses thereof” (Lycera Corporation, priority 2013, dated 2018)
